From patent publication US12492410B2, “Engineered cytolytic immunecell” (Autolus Limited, priority 2018, dated 2025)

Columns and labels:
[1] = tested on: minocycline dAb (SEQ ID NO: 8); assay: Phage-peptide screening for minocycline-displaceable binding to minocycline dAb; conditions: for displaceable specificity for minocycline dAb: minocycline dAb-Fc immobilised on beads, with and without 1 μM minocycline, control antibody SEQ ID NO: 13; for affinity of peptide for minocycline dAb: stated in words
Procedure: FIG. 4—Graphs showing minocycline displaceable binding of peptides SEQ ID NO: 34, SEQ ID NO: 35, SEQ ID NO: 36 and SEQ ID NO: 37 to minocycline dAb (SEQ ID NO: 8) versus control antibody (SEQ ID NO: 13).
A minocycline dAb-Fc was immobilised on beads. The minocycline dAb was encoded by SEQ ID NO: 8. Phage-peptide colony screening was performed with and without 1 μM minocycline.
An antibody comprising SEQ ID NO: 13 was used as a control antibody (the control antibody comprises different CDRs to SEQ ID NO: 8).

HEK293T cells = assay: Minocycline induced secretion of ER retained IL12, IL12 ELISA of supernatant; format: cell-based; conditions: IL12 fused to the peptide, in the presence of KDEL anchored minocycline dAb; minocycline 0 μM; all time points (2 and 4 hours)
Procedure: FIGS. 5A, 5B and 5C—Minocycline induced secretion of ER retained IL12 HEK293T cells were transiently transfected with constructs expressing the intracellular KDEL tagged anti-minocycline dAb and dAb-specific peptide (GWARA or PWAYS) tagged IL-12 (A). Transfection efficiency determined by staining for HA marker expression with transfection efficiency ranging from 50-70% (B). […] Supernatant was collected 2 and 4 hours post minocycline addition and IL12 ELISA readout carried out (C).
The KDEL amino acid sequence was used to retain proteins within the ER/Golgi apparatus. The minocycline specific dAb was tagged with the KDEL sequence (SEQ ID NO: 29) thus anchoring it within with the ER/Golgi and a molecule of interest (IL12) is in turn tagged with the peptide with affinity to the dAb causing its retention. Upon addition of minocycline, the dAb-peptide complex dissociates enabling secretion of the peptide-tagged molecule.
HEK293T cells were seeded at […] in 96-well plates to achieve confluency of 50-60% for next day transfection. A transfection master mix was made by adding 30 μL of GeneJuice transfection reagent to 470 μL plain IMDM and incubating for 5 minutes. For each well, 0.13 μg of plasmid DNA was then added to 5.2 uL of the IMDM-Genejuice master mix and incubated for 15 minutes. Transfection mix containing the GeneJuice-DNA complex was then added to the cells. […]

Chain of minocycline dAb (SEQ ID NO: 8) (as listed by the source): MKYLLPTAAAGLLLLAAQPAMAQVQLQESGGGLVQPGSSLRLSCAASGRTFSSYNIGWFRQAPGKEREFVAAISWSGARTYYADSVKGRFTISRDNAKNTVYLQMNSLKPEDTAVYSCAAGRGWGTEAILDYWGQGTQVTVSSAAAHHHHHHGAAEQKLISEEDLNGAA

Row | Sequence | displaceable specificity for minocycline dAb [1] | affinity of peptide for minocycline dAb [1] | IL12 secretion (HEK293T cells)
1 | ACPHWAQAFC (minocycline peptide mimic) [SEQ ID NO: 35] | displaceable specificity | – | –
2 | ACPPWAYSFC (minocycline peptide mimic) [SEQ ID NO: 37] | displaceable specificity | low affinity | concentration dependent increase
3 | ACPGWARAFC (minocycline peptide mimic) [SEQ ID NO: 34] | displaceable specificity | high affinity | concentration dependent increase
4 | ACPQWAMMFC (minocycline peptide mimic) [SEQ ID NO: 36] | displaceable specificity | – | –
